Test results as given in patent US8096982B2, “Method and apparatus to enhance optical transparency of biological tissues” (priority 1998, dated 2012).

Tests used:
sclera = format: in vivo, rabbit; details: for signs of inflammation on follow up examination: rabbit, in vivo; for time for sclera to turn clear: topical drops on exposed sclera, conjunctiva surgically separated
Protocol: In order to assess the longitudinal effects of topical administration of glycerol or diatrizoate meglumine acid on the sclera, in-vivo experiments were carried out on two rabbits, and the eyes were examined for signs of inflammation once a day for approximately 1 week.
Each rabbit was put under anesthesia using an intra-muscular injection of Rompin® and Ketamine®. The conjunctiva serves as the permeability barrier for the sclera, and therefore, the conjunctiva was surgically separated from the sclera and the distal surface of the sclera was exposed. Topical drops of glycerol were administered on one eye, and of diatrizoate meglumine acid in the contra-lateral eye, for both rabbits. In the case of glycerol, the sclera turned clear, almost instantaneously (in less than 5 seconds), whereas in the case of diatrizoate meglumine acid, the sclera turned clear in approximately 1 minute. The conjunctiva was stretched over the sclera, again, and stay sutures were used to re-attach the conjunctiva to the limbal region. Ocumycing was administered topically to both eyes which had undergone surgery, to prevent infection. After approximately 5-10 minutes, the sclera in both eyes became opaque, again.

[1] = Optical transmission characteristics of the agent in a cuvette (UV-Vis-NIR spectrophotometer); format: physicochemical
Protocol: Diatrizoate meglumine acid, which is commercially known as Hypaque®, is a radiographic injection solution. […] In an experiment, a cuvette was filled with diatrizoate meglumine acid and its optical transmission characteristics were evaluated using a Varian CARY 5E™ UV-Vis-NIR spectrophotometer.

porcine sclera = test: Diffuse transmission through excised porcine sclera before and after submersion in clarifying agent; details: maximum increase, at 750 nm, range 350-750 nm
Protocol: Porcine eyes were enucleated immediately post-mortem, and were transported to the laboratory in a wet gauze pad, held at 4° C. during transport in a well-insulated cooler. Each eye was inflated with saline. Limbal conjunctiva and Tenons capsule were dissected and excised using a pair of blunt Wescott scissors. A No. 64 Beaver blade was then used to outline 20 mm×20 mm sections of the sclera from the limbus to the equator of the globe. Incisions were deepened to the supra-choroidal space. Sections of sclera were then lifted off the intact choroid and ciliary body. Scleral thickness was measured and was determined to be 1.65 mm on average.
Three prepared sections of sclera were each then placed between quartz slides, and then between two flat aluminum plates. The tissue sample assembly was then fixed against the input port of a diffuse reflectance accessory (integrating sphere) of a Varian Cary 5E™ UV-Vis-NIR spectrophotometer, and diffuse transmission was measured for wavelengths ranging from 350 nm to 750 nm. The three tissue samples were then submerged in separate containers of glycerol, the first being submerged for 5 minutes, the second for 10 minutes, and the third for 15 minutes. Each sample was then again placed in the tissue assembly and was fixed against the input port of the diffuse reflectance accessory of the spectrophotometer, and the diffuse transmission was measured again over the same wavelength range as above. These measurements were also carried out, using three other scleral samples, and diatrizoate meglumine acid as the IRIM agent.

edematous corneas = details: glycerol applied topically in concentrations from 50% to 100%; cited from earlier work
human skin = details: approximately 8 minutes after topical administration; stratum corneum tape-stripped; 480-800 nm
Protocol: Two skin surfaces on the forearm were shaved and cleaned prior to measurements. A tape-strip method was used to remove the stratum corneum. […] The topical drugs administered formed an approximate circle of 1 cm in diameter. The drugs were left to diffuse into the tissue for approximately 8 minutes.
Surface reflectance measurements were made immediately after tape stripping of the skin (prior to topical administration of the drugs), and subsequently, approximately 8 minutes after topical administration of the drugs. A CSI Portable Diffuse Reflectance Spectrometer, developed by Canfield Scientific Instruments, Inc. (Fairfield, N.J.), was used for these surface measurements. […] One leg of the bifurcated fiber optic bundle is coupled to the lamp and the other leg is coupled to the spectrometer. The joined end of the fiber bundle (approximately 3 mm in diameter) was placed in contact with the skin surface from which measurements were made. The measurements were made across a 330 nm to 840 nm spectral range, with a 0.5 nm resolution. The integration time for the measurements was set at 50 kHz.
The tape stripping of the skin causes a mild irritation of the skin, leading to a transient erythema.

Structure (SMILES) | signs of inflammation on follow up examination (sclera) | time for sclera to turn clear (sclera) | optical transmission ([1]; wavelengths above 400 nm) | optical transmission ([1]; wavelengths below approximately 400 nm) | increase in diffuse transmission through the sclera (porcine sclera; submerged 5 minutes) | increase in diffuse transmission through the sclera (porcine sclera; submerged 10 minutes) | increase in diffuse transmission through the sclera (porcine sclera; submerged 15 minutes) | clearing of edematous corneas following topical administration (edematous corneas) | increase in absorbance of tissue, in-vivo (human skin)
CC(=O)Nc1c(I)c(NC(C)=O)c(I)c(C(=O)O)c1I.CNC[C@H](O)[C@@H](O)[C@H](O)[C@H](O)CO [diatrizoate meglumine acid] | no signs of inflammation | approximately 1 minute | very high transmission | very low transmission | up to 200% | ≤ 395% | ≤ 975% | – | –
OCC(O)CO [glycerol] | no signs of inflammation | less than 5 seconds | – | – | up to 240% | ≤ 660% | ≤ 1090% | effective in clearing edematous corneas, within two minutes | up to 60.5%
